Results taken from article PMC12035797, “Peptidomimetics Activating the Proteasome: A New Perspective for Parkinson’s Treatment” (Journal of Medicinal Chemistry, 2025).

Legend:
[1] = system: human 20S proteasome (Tau-441 substrate); experiment: Tau-441 degradation by h20S (SDS-PAGE); assay type: biochemical; conditions: 10 μM modulator, 37 °C, 1.5 h
Protocol: The effectiveness of the compounds has also been examined by using proteins as substrates. By means of SDS-PAGE electrophoresis, we checked the extent to which model proteins were digested by the 20S proteasome alone and after its stimulation by 10 μM modulators. […] After incubation with the enzyme in the presence of each modulator, less than 40% of synuclein remained. […] The experiment was performed as it was described.[36] Briefly, α-synuclein (rPeptide, […], USA) and Tau-441 (Novus Biologicals, Centennial, CO, USA) were dissolved in 20 mM HEPES buffer (pH 7.4) and mixed with a human 20S proteasome. Samples were incubated at 37 °C for 1.5 h, after which the reaction was terminated by adding 4× Laemmli buffer. The levels of undigested proteins were evaluated by SDS-PAGE. The band intensities of proteins incubated with […] in the presence of a modulator were compared to those of proteins incubated with the enzyme alone, which were set as 100%. Three independent experiments were performed for each protein. The results are presented as the means ± SD. One-way ANOVA with Tukey's post-hoc test was used to determine statistical significance.

[2] = system: hippocampal neurons containing Lewy body-like pS129-αsyn aggregates; experiment: pS129-α-synuclein aggregates in PFF-treated hippocampal neurons; assay type: cell-based, mouse; conditions: 7 days after PFFs
Description: Encouraged by the results received, we tested the ability of the modulator-CPP constructs to increase α-synuclein degradation in a cell model using primary mouse neuronal cells. The presence of Lewy-like neurites and Lewy-like bodies containing aggregated α-synuclein with phosphorylated serine 129 (pS129-αsyn) is a characteristic feature of the brains of people with Parkinson’s disease. To mimic these aggregations, we introduced a solution of preformed fibrils (PFFs) to the media of neuronal cells, which led to the induction of α-synuclein phosphorylation and its aggregation in neurons isolated from mouse embryos. PFFs are purified, prion-like fibrils of α-synuclein that are produced by expressing a recombinant monomeric protein in bacteria. Seven days after PFFs are introduced to the cells, large aggregates are visible in the cell soma, often next to the cell nucleus. We added the PFF solution to the hippocampal cells, and after an hour of incubation, we introduced solutions of the activator. After 7 days, we immunostained neuronal cells using a monoclonal antibody against the NeuN protein, which is commonly used in neuronal differentiation studies to assess their functional status. Additionally, we stained the nuclei of all incubated cells with DAPI. […] It is noteworthy that the number of cells in samples with activators was slightly higher (Figure 5), which may indicate neuroprotective properties. […] The main tool for monitoring this process was an antibody against pS129-αsyn. […] The fluorescent microscopy images (Figure 5) show the difference between the amounts of aggregated protein in the control sample and in the samples containing activators at different concentrations.
Cells were isolated from pregnant mouse embryos at E16.0 and plated on precoated with poly-L-lysine wells of 96-well plates (PerkinElmer/Revvity Inc., Waltham, MA, USA) at 25,000 cells/well. The final medium volume was 150 μL/well. Cells were incubated at 37 °C, 5% CO2. […]

C[C@@H](O)[C@H](NC(=O)[C@H](Cc1ccccc1)NC(=O)[C@H](Cc1ccc(O)cc1)NC(=O)CN(CCCCN)C(=O)[C@H](CCCNC(=N)N)NC(=O)[C@H](CCCNC(=N)N)NC(=O)[C@H](CCCNC(=N)N)NC(=O)[C@H](CCC(N)=O)NC(=O)[C@H](CCCNC(=N)N)NC(=O)[C@H](CCCNC(=N)N)NC(=O)[C@H](CCCCN)NC(=O)[C@H](CCCCN)NC(=O)[C@@H](N)CCCNC(=N)N)C(=O)NCC(=O)N[C@@H](CO)C(=O)N[C@@H](CCCCN)C(=O)N[C@@H](CC(=O)O)C(=O)N[C@@H](Cc1c[nH]c2ccccc12)C(=O)N[C@@H](CCCNC(=N)N)C(=O)N[C@@H](CO)C(=O)N[C@@H](Cc1ccc(O)cc1)C(=O)N[C@@H](Cc1ccc(O)cc1)C(=O)N[C@@H](CO)C(=O)O [1f]
Tau protein digested by h20S [1]: more than 90% | effect on hippocampal cells containing α-synuclein aggregates ([2]; 0.5 and 2.5 μM): effectively reduced the number of hippocampal cells containing α-synuclein | reduction of the number of aggregates formed ([2]; very low concentration): 50%
